The subject of assay [1] is HIV-1-infected ACH2 cells. The experiment in a line: Annexin V and PI double staining flow cytometry. To be noted: ACH2, especially with TNF-α; 10 μM, 48 h. Format: cell-based. From the text:
(§1) Apoptosis and necrosis are two pathways that lead to cell death. Apoptosis is characterized by a series of morphological features, including cell shrinkage, plasma membrane blebbing, phosphatidylserine translocation to the outer leaflet of the plasma membrane, nuclear condensation, and DNA fragmentation (1). To distinguish apoptotic from necrotic cells, we performed a flow cytometry experiment using Annexin V and PI double staining. Annexin V is a sensitive probe for phosphatidylserine, and PI was used to detect membrane loss, since membrane loss leads to the accessibility of PI staining to DNA. […] At 48 h after drug treatment, most of the apoptotic cells were found at the late stage of apoptosis and not in the necrotic population (FIG. 6A). […] Absorbances of the samples were read every 60 min in a Spectramax 250 microplate reader at 405 nm.
(§2) Cells were collected, stained with PI and FITC-Annexin V, and analyzed by FACS. […] The antigen-antibody complexes were detected using ^125I-labeled protein G. (C) Cells were washed in PBS and analyzed for caspase-3 activity using a colorimetric protease assay kit (Chemicon). […] Absorbances of samples were read every 60 min in a microplate reader at 405 nm.
Apoptosis was determined by using Annexin V and PI double staining (Annexin V-FITC; PharMingen International). […] Cells were acquired and analyzed using CELLQuest software (Becton Dickinson).
(Flow cytometry measures light scatter and fluorescence of single cells or particles in a stream.)

The test system of a further assay is PARP. As to the kind of experiment: Immunoblot of PARP cleavage. Format: cell-based. Conditions: induced ACH2 cells exposed to Roscovitine.
From the text: as §1, with “6A). We next investigated whether the apoptotic cascade through the caspase-3 pathway was activated under drug treatment.” for “6A).”
as §2
(In general: A western blot detects proteins with antibodies after separation by electrophoresis.)

For assay [2], the system named is HIV-1 genomic, structural, and regulatory RNAs. The experiment in a line: Northern blot with whole genomic HIV-1 probe in ACH2 cells. Format: cell-based. To be noted: ACH2, TNF-α, then increasing concentrations (1, 10, 50 μM). The method, then:
At days 2, 4, and 6, the supernatants were collected, and the released HIV-1 particles were measured by using a p24 antigen ELISA assay. (B) Twenty micrograms of total RNA was separated on an RNA-formaldehyde-agarose gel, transferred, and probed with full-length labeled HIV-1 genome RNA. The hybridized genomic RNA, singly spliced (structural), and doubly spliced (regulatory) RNAs were exposed and counted by using Molecular Dynamic PhosphorImager software.

The target of the next assay is cdk9-cyclin T complex (Homo sapiens, UniProt P50750). As to the kind of experiment: cdk9-cyclin T immunoprecipitate CTD kinase assay from treated cells. Conditions: 10 μM (FIG. 5B).
Another assay deals with caspase-3. The experiment in a line: Caspase-3 colorimetric protease assay (DEVD-pNA) on cell lysates. Conditions: induced ACH2 cells, 37° C., 3 h. Format: cell-based.
From the text: Apoptosis and necrosis are two pathways that lead to cell death. Apoptosis is characterized by a series of morphological features, including cell shrinkage, plasma membrane blebbing, phosphatidylserine translocation to the outer leaflet of the plasma membrane, nuclear condensation, and DNA fragmentation (1). To distinguish apoptotic from necrotic cells, we performed a flow cytometry experiment using Annexin V and PI double staining. Annexin V is a sensitive probe for phosphatidylserine, and PI was used to detect membrane loss, since membrane loss leads to the accessibility of PI staining to DNA. […] Absorbances of the samples were read every 60 min in a Spectramax 250 microplate reader at 405 nm.
as §2
Cells were washed in PBS and analyzed for caspase-3 activity by using a CPP32/Caspase-3 Colorimetric Protease Assay Kit (Chemicon, Temecula, Calif.) according to the manufacturers' instructions. […] Protein concentrations of the lysates were determined by using the bicinchoninic acid assay reagent (Pierce, Rockford, Ill.). […]

Chain of cdk9-cyclin T complex (P50750 whole entry): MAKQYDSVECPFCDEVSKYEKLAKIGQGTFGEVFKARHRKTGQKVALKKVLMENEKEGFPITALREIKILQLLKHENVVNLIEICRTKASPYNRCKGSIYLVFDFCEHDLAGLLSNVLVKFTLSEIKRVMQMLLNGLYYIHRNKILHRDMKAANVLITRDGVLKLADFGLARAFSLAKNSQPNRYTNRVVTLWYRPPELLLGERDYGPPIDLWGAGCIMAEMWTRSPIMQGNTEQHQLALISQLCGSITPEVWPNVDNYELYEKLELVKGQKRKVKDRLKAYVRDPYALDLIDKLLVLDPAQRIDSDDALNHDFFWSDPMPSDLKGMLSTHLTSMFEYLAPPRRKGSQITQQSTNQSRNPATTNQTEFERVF
Chain of cdk9-cyclin T complex (O60563 whole entry partner): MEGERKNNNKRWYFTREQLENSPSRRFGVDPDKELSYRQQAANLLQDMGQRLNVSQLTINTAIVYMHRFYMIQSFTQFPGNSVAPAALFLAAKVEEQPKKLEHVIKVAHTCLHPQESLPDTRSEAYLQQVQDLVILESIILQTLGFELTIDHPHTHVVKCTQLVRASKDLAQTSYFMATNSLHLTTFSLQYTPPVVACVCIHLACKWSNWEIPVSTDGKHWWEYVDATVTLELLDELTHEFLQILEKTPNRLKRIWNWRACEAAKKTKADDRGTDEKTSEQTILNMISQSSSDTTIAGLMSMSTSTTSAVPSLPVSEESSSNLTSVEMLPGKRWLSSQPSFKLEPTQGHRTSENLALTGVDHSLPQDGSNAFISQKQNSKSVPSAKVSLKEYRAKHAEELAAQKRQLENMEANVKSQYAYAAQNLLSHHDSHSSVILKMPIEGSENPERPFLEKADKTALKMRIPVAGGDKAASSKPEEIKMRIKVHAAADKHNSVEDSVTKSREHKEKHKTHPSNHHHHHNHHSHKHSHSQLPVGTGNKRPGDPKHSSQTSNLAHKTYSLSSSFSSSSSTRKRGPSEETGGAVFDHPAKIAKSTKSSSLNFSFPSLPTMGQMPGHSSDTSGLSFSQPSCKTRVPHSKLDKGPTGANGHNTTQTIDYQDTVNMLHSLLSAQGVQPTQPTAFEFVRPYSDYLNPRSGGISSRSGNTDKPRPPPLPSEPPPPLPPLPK

For Roscovitine, the “number of apoptotic (Annexin V-stained) cells” value in assay [1] is “remarkable increase in the number of apoptotic cells”. Besides, in the assay with PARP, the PARP cleavage entry was “almost completely cleaved”. Besides, in assay [2], the “HIV-1 genomic, structural, and regulatory RNA levels” value is recorded as “dramatically decreased”. For the same substance, the “cdk9 levels and activity on phosphorylation of RNA Pol II CTD” value on cdk9-cyclin T complex is “decrease of cdk9 levels and its activity”. In the assay with caspase-3, this substance came in with a caspase-3 activity increase of around 5 fold.
